Data published in ChEMBL document CHEMBL6078669, “Stereoisomers of cannabidiols and their pharmacological activities - A potentially novel direction for cannabinoids” (Bioorg Med Chem, 2025).

Assays:
[1] = target: T1, Cannabinoid receptor 1 (Rattus norvegicus, UniProt P20272); assay: Displacement of [3H]HU-243 from Sabra rat brain synaptosome CB1 receptor assessed as inhibition constant incubated for 90 mins; type: subcellular
[2] = target: T2, Cannabinoid receptor 2 (Homo sapiens, UniProt P34972); assay: Displacement of [3H]HU-243 from CB2 receptor (unknown origin) extracted from green monkey COS-7 cell membrane assessed as inhibition constant incubated for 90 mins; type: cell membranes
[3] = target: T3, Transient receptor potential cation channel subfamily V member 1 (Homo sapiens, UniProt Q8NER1); assay: Agonist activity at human TRPV1 receptor expressed in HEK293 cells assessed as effect on [Ca2+]i preincubated with capsazepine for 30 mins followed by compound addition by Fluo-3 probe based fluorescence analysis; type: cell-based
[4] = Inhibition of [14C]-arachidonoylethanolamide uptake in rat RBL-2H3 cells assessed as increase in AEA level incubated for 5 mins by scintillation counting; type: functional, cell-based; settings: RBL-2H3, 5 min
[5] = target: Sodium channel protein type 9 subunit alpha (Homo sapiens, UniProt Q15858); assay: Inhibition of human Nav1.7 expressed in HEK293 cells by whole cell electrophysiology recording; type: cell-based
[6] = target: T4, Fatty-acid amide hydrolase 1 (Mus musculus, UniProt O08914); assay: Inhibition of FAAH-mediated [14C]-AEA hydrolysis in mouse N18TG2 cell membrane incubated for 30 mins by scintillation counting; type: cell membranes
T4 sequence (O08914 whole entry): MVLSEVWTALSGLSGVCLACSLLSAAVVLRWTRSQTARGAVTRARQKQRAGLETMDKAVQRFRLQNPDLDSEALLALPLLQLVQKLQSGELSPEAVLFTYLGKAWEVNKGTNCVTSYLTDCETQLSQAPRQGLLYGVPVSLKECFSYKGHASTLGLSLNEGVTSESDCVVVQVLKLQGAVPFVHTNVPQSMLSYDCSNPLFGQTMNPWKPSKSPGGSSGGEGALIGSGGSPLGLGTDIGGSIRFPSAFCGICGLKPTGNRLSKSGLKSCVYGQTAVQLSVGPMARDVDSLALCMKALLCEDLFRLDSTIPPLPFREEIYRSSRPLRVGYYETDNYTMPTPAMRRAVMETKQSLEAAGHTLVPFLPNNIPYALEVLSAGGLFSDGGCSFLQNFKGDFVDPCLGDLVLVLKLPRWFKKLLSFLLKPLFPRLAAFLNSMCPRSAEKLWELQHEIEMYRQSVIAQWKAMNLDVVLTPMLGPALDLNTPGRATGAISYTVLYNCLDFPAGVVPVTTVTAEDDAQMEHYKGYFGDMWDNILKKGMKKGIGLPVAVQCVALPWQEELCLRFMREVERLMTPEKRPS

[7] = target: T5, Transient receptor potential cation channel subfamily V member 2 (Rattus norvegicus, UniProt Q9WUD2); assay: Agonist activity at recombinant rat TRPV2 expressed in HEK293 cells assessed as increase in [Ca2+]i by Fluo-4AM based calcium assay; type: cell-based
T5 sequence (Q9WUD2 whole entry): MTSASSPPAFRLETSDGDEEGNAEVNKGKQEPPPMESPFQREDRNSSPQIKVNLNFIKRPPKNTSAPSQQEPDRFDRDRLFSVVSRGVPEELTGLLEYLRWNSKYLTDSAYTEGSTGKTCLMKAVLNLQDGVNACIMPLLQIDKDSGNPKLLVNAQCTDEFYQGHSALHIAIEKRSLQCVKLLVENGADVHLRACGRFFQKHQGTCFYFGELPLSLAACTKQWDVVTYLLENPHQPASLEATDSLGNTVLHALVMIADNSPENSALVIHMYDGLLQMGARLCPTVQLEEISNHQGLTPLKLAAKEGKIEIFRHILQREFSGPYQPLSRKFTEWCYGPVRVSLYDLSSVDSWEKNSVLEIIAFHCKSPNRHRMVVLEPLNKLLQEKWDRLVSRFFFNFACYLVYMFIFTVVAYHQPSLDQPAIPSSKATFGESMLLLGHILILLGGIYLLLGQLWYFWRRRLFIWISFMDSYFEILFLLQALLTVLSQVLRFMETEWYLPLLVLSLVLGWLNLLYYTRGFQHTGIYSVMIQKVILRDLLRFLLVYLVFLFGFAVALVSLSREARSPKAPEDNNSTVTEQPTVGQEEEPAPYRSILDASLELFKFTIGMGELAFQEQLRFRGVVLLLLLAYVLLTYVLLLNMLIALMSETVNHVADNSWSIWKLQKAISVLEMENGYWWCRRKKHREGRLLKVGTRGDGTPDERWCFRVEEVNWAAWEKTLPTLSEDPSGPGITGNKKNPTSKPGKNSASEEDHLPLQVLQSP

[8] = target: Transient receptor potential cation channel subfamily A member 1 (Rattus norvegicus, UniProt Q6RI86); assay: Agonist activity at recombinant rat TRPA1 expressed in HEK293 cells assessed as increase in [Ca2+]i by Fluo-4AM based calcium assay; type: cell-based
[9] = target: Transient receptor potential cation channel subfamily M member 8 (Rattus norvegicus, UniProt Q8R455); assay: Antagonist activity at recombinant rat TRPM8 expressed in HEK293 cells assessed as inhibition of icillin-induced intracellular calcium level preincubated with compound for 5 mins followed by icillin addition by Fluo-4AM based calcium assay; type: cell-based
[10] = target: T3, Transient receptor potential cation channel subfamily V member 1; assay: Agonist activity at recombinant human TRPV1 expressed in HEK293 cells assessed as increase in [Ca2+]i level by Fluo-4AM based calcium assay; type: cell-based
[11] = target: G-protein coupled receptor 55 (Homo sapiens, UniProt Q9Y2T6); assay: Antagonist activity at GPR55 (unknown origin)
[12] = target: T6, Equilibrative nucleoside transporter 1 (Homo sapiens, UniProt Q99808); assay: Inhibition of ENT-1 (unknown origin)
T6 sequence (Q99808 whole entry): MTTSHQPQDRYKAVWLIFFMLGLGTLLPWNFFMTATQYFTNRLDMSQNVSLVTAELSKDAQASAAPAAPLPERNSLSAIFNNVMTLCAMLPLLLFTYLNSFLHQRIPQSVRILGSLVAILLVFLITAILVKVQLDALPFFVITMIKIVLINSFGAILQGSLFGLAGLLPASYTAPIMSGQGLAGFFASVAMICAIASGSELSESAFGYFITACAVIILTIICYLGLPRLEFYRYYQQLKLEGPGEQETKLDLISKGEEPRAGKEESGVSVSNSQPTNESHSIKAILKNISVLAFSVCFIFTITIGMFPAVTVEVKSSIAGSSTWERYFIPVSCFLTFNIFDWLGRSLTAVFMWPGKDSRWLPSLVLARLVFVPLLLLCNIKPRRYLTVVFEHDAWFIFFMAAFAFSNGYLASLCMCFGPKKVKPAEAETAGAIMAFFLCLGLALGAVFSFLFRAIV

[13] = target: T7, 5-hydroxytryptamine receptor 1A (Homo sapiens, UniProt P08908); assay: Agonist activity at 5-HT1A (unknown origin); type: functional
T7 sequence (P08908 whole entry): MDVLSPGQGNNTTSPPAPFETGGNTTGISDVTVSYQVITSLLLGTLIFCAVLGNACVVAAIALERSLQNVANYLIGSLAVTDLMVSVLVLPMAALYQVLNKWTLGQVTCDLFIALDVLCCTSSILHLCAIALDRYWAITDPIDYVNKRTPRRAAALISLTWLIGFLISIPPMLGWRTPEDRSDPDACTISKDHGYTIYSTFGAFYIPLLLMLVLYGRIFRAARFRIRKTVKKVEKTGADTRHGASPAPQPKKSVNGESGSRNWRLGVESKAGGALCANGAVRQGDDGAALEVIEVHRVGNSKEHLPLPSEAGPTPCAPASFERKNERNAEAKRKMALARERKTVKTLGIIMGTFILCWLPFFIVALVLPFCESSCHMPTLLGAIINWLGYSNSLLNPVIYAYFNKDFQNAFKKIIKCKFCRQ

[14] = target: T8, D(2) dopamine receptor (Homo sapiens, UniProt P14416); assay: Partial agonist activity at D2-high receptor (unknown origin)
[15] = target: T8, D(2) dopamine receptor; assay: Partial agonist activity at D2-low receptor (unknown origin)
[16] = target: T1, Cannabinoid receptor 1; assay: Displacement of [3H]CP-55,940 from Sabra rat brain synaptosome CB1 receptor assessed as inhibition constant incubated for 90 mins; type: subcellular
[17] = target: T2, Cannabinoid receptor 2; assay: Displacement of [3H]CP-55,940 from human CB2 receptor extracted from CHO cell membrane assessed as inhibition constant incubated for 90 mins; type: cell membranes
[18] = target: T9, Cannabinoid receptor 1 (Homo sapiens, UniProt P21554); assay: Antagonist activity at human CB1 receptor expressed in HEK293T cells co-transfected with pCRE-Luc plasmid preincubated with compound for 30 mins followed by WIN55,212 addition and measured after 6 hrs by Dual-luciferase assay; type: functional, cell-based
[19] = target: T2, Cannabinoid receptor 2; assay: Agonist activity at human CB2 receptor expressed in HEK293T cells co-transfected with pCRE-Luc plasmid preincubated with compound for 30 mins followed by forskolin addition and measured after 6 hrs by Dual-luciferase assay; type: functional, cell-based
[20] = target: T9, Cannabinoid receptor 1; assay: Binding affinity to CB1 receptor (unknown origin) assessed as inhibition constant
[21] = target: T2, Cannabinoid receptor 2; assay: Binding affinity to CB2 receptor (unknown origin) assessed as inhibition constant
[22] = Selectivity ratio of Ki for CB1 receptor (unknown origin) to Ki for CB2 receptor (unknown origin)
[23] = target: T9, Cannabinoid receptor 1; assay: Displacement of [3H]CP-55,940 from human CB1 receptor extracted from HEK293 cell membrane assessed as inhibition constant incubated for 90 mins by liquid scintillation spectrophotometric analysis; type: cell membranes
[24] = target: T2, Cannabinoid receptor 2; assay: Displacement of [3H]CP-55,940 from human CB2 receptor extracted from HEK293 cell membrane assessed as inhibition constant incubated for 90 mins by liquid scintillation spectrophotometric analysis; type: cell membranes

T2 sequence (P34972 whole entry): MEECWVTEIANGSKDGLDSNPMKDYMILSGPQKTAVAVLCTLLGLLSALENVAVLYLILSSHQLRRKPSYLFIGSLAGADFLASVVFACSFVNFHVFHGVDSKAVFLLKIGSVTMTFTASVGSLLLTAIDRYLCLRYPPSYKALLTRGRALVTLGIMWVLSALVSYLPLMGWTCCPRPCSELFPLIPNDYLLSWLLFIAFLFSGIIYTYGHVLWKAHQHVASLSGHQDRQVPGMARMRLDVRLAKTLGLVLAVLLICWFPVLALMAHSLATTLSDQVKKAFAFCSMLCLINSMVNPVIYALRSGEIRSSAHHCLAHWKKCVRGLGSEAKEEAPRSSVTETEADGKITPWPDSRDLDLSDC
T1 sequence (P20272 whole entry): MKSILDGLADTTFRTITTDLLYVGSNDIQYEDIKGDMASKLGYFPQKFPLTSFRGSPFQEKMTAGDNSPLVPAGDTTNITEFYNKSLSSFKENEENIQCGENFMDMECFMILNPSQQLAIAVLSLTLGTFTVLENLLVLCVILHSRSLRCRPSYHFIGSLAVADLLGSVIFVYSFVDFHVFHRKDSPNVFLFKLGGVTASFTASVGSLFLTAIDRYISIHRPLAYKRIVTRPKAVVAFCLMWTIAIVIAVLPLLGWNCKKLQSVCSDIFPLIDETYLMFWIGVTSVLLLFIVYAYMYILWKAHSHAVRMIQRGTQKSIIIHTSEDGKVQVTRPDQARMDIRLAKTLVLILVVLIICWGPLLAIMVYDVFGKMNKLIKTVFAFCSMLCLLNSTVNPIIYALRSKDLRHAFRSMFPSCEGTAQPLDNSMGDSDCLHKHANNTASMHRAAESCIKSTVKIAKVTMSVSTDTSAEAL
T9 sequence (P21554 whole entry): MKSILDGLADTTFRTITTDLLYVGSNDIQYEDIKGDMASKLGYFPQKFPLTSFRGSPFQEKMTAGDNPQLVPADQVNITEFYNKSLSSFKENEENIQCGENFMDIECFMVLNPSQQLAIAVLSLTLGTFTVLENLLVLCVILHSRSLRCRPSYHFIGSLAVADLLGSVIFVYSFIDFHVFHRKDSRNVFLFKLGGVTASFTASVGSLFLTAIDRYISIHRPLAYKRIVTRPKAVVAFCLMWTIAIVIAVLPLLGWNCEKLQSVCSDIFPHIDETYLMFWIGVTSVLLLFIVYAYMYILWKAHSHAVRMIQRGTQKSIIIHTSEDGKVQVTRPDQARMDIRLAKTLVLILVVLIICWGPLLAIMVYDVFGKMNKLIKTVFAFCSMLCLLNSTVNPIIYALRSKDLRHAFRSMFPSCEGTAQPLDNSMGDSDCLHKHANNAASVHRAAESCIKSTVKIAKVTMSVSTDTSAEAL
T3 sequence (Q8NER1 whole entry): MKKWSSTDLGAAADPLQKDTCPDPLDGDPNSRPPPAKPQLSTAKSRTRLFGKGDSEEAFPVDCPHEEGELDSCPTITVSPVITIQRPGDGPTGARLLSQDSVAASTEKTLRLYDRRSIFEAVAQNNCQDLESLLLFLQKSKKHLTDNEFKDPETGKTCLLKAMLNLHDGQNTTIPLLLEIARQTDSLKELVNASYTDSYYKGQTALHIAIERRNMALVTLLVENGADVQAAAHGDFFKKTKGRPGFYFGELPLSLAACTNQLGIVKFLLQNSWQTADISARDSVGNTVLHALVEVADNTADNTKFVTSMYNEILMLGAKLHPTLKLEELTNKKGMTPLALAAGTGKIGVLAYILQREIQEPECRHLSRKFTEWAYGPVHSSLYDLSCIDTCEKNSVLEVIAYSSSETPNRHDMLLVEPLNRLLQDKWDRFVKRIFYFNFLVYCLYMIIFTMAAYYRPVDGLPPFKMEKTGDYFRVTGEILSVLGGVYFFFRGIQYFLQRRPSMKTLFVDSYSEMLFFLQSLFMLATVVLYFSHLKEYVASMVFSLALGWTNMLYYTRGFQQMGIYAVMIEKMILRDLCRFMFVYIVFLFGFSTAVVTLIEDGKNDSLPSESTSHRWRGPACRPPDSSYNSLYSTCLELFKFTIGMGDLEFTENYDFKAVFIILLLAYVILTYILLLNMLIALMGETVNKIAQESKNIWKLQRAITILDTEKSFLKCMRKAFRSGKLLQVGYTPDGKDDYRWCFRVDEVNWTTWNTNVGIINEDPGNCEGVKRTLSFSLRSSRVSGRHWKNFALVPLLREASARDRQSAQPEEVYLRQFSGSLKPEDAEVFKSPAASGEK
T8 sequence (P14416 whole entry): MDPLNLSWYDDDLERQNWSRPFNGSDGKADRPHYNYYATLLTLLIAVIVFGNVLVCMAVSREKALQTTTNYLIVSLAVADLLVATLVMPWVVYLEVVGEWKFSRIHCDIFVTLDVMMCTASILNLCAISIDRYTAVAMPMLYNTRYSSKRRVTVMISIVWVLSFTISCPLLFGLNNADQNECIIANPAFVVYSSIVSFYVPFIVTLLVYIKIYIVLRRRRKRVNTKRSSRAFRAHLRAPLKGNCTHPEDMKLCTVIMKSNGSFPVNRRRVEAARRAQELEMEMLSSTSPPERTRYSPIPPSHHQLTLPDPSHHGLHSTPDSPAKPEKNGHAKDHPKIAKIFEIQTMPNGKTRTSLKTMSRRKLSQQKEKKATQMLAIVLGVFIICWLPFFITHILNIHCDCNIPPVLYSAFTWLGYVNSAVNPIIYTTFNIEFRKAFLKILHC
Sequence of Sodium channel protein type 9 subunit alpha (Q15858 whole entry): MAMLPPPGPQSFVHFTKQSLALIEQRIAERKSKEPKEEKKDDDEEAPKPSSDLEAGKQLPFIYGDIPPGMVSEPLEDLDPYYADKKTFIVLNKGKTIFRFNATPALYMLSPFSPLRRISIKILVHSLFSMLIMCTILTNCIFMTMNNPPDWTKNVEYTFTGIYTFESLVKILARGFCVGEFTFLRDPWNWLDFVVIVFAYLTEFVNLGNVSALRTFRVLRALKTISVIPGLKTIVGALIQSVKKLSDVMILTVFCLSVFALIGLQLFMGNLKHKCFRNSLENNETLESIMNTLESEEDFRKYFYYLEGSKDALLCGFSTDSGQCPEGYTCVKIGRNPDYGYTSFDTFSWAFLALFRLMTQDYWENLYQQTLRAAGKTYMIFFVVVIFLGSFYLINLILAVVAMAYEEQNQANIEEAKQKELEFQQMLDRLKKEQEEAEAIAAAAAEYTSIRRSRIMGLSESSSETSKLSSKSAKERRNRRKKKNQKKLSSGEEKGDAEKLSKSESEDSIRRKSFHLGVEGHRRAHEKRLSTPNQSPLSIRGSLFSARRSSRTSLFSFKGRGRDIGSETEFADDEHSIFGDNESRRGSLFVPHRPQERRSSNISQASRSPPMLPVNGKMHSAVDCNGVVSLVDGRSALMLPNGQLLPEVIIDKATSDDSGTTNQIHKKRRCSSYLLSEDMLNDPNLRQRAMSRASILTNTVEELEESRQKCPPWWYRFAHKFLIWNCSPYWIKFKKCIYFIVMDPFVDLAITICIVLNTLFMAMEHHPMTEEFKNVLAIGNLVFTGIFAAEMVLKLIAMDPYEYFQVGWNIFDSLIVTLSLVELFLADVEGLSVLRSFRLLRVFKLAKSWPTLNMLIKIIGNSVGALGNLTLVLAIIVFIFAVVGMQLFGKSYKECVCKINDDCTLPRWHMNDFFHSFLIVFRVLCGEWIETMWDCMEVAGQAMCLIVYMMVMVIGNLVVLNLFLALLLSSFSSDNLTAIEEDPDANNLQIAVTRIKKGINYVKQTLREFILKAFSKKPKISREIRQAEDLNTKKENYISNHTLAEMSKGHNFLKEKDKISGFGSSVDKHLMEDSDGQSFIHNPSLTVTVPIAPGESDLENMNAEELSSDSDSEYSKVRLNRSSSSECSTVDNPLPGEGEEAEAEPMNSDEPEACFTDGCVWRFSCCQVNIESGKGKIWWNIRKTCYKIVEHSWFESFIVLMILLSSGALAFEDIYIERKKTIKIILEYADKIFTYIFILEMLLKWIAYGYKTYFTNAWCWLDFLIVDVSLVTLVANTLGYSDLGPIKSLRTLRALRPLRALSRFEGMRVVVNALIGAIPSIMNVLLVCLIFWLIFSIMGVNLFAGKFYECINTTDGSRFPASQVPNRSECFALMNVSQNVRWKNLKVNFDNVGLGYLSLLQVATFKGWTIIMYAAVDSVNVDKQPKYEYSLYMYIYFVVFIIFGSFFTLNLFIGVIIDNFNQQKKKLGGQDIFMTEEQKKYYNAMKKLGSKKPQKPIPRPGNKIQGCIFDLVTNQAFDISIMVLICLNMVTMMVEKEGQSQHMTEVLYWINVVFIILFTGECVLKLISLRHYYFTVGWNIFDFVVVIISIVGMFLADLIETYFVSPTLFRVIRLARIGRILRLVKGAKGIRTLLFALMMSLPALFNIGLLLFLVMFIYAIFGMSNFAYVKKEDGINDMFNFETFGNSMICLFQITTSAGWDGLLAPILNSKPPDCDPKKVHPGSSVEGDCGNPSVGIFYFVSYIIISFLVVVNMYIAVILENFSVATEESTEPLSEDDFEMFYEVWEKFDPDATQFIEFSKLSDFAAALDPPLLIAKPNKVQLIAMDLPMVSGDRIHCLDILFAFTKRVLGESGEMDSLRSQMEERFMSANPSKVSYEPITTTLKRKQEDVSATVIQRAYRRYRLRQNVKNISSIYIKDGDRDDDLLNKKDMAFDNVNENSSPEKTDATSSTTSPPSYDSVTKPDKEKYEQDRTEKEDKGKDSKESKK
Sequence of G-protein coupled receptor 55 (Q9Y2T6 whole entry): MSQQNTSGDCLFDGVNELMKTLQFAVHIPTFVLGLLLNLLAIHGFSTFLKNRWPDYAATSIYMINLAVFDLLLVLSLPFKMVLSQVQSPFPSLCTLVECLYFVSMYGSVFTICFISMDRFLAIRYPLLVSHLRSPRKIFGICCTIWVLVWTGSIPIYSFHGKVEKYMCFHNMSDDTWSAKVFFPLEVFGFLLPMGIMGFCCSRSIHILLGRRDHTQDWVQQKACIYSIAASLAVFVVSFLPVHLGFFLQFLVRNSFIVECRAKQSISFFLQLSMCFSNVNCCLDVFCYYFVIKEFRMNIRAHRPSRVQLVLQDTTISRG

C=C(C)[C@@H]1CCC(C)=C[C@H]1c1c(OC)cc(C(C)(C)CCCCCC)cc1OC
Ki [1]: > 1 µM | Ki [2]: > 1 µM

C=C(C)[C@@H]1CCC(C)=C[C@H]1c1c(O)cc(CCCCC)cc1O [CANNABIDIOL]
EC50 [3]: 3.2 µM | IC50 [4]: 22 µM | IC50 [5]: 1.82 µM | IC50 [6]: 27.5 µM | EC50 [7]: 1.25 µM | EC50 [8]: 0.11 µM | IC50 [9]: 0.06 µM | EC50 [10]: 1 µM | IC50 [11]: 0.445 µM | Ki [12]: 0.25 µM | EC50 [13]: 16 µM | Ki [14]: 66 pM | Ki [15]: 2.8 µM

CCCCCc1cc(O)c([C@@H]2C=C(CO)CC[C@H]2C(C)C)c(O)c1
Ki [16]: > 1 µM | Ki [17]: > 1 µM

C=C(C)[C@H]1CCC(C)=C[C@@H]1c1c(O)cc(CCCCC)c(C(=O)OCC(O)CCC)c1O (stereo not given in full)
IC50 [18]: 0.21 µM | EC50 [19]: 0.09 µM

COc1cc(C(C)(C)CCCCCCN=C=S)cc(OC)c1[C@H]1C=C(CO)[C@H]2C[C@@H]1C2(C)C
Ki [20]: 2.67 µM | Ki [21]: 0.0131 µM | Ratio Ki [22]: 203

C=C(C)[C@@H]1CCC(C)=C[C@H]1c1c(O)cc(C(C)(C)CCCCCC)cc1O
Ki [1]: > 10 µM | Ki [2]: 1.8 µM | IC50 [4]: 14 µM

C=C(C)C1CCC(C)=CC1O (stereo not given)
Ki [23]: > 1 µM | Ki [24]: 0.375 µM

C=C(C)[C@@H]1CCC(CO)=C[C@H]1c1c(O)cc(CCCCC)cc1O
Ki [1]: > 1 µM | Ki [2]: > 1 µM

C=C(C)[C@@H]1CCC(C)=C[C@H]1c1c(O)cc(CCC)cc1O [CANNABIDIVARIN]
Ki [20]: > 1 µM

CCCCCCC(C)(C)c1cc(OC)c([C@@H]2C=C(CO)[C@@H]3C[C@H]2C3(C)C)c(OC)c1 [ONTERNABEZ]
Ki [20]: > 1 µM

C=C(C)[C@H]1CCC(CO)=C[C@@H]1c1c(O)cc(C(C)(C)CCCCCC)cc1O
Ki [1]: 0.0025 µM | Ki [2]: 0.044 µM | IC50 [4]: 7 µM

C=C(C)[C@H]1CCC(C(=O)O)=C[C@@H]1c1c(O)cc(C(C)(C)CCCCCC)cc1O
Ki [20]: 0.0058 µM | Ki [21]: 0.155 µM | Ratio Ki [22]: 0.03

C=C(C)[C@@H]1CCC(CO)=C[C@H]1c1c(O)cc(C(C)(C)CCCCCC)cc1O
Ki [1]: ≥ 4 µM | Ki [2]: 0.671 µM | IC50 [4]: 12.5 µM
